Data from ChEMBL document CHEMBL4715817, “Python Cathelicidin CATHPb1 Protects against Multidrug-Resistant Staphylococcal Infections by Antimicrobial-Immunomodulatory Duality” (J Med Chem, 2018).
In brackets after ≈: the same amount, converted by molar mass. Activity calls are given as the source filed them. No cut-off for these calls is given here. Peptide text beside a SMILES is read from it.

What was measured:
Staphylococcus aureus [1] = assay: In vivo antibacterial activity against vancomycin resistant Staphylococcus aureus infected in macrophage/monocyte deficient kunming mouse assessed as bacterial load in peritoneal lavage at 10 mg/kg, ip administered 24 hrs before infection; type: functional, organism-based
[2] = Immunomodulatory activity in mouse peritoneal macrophage assessed as increase in IL-10 mRNA level at 20 ug/ml measured after 6 hrs by qRT-PCR analysis relative to control; type: functional; details: dose 20 µg/ml
[3] = Induction of neutrophil extracellular trap formation in neutrophil (unknown origin) at 40 ug/ml measured after 3 hrs by fluorescence analysis; type: functional; details: dose 40 µg/ml
Staphylococcus aureus [4] = assay: Antimicrobial activity against Staphylococcus aureus IS 08032706 incubated for 16 to 18 hrs by fluorescence microplate reader analysis; type: functional; details: time 16-18 hrs
Macrophage [5] = assay: Inhibition of LPS-induced phosphorylation of p38 in mouse peritoneal macrophage at 20 ug/ml pretreated for 1 hr followed by LPS stimulation measured after 30 mins by Western blot analysis relative to control; type: tissue-based; details: dose 20.0 µg/ml, time 1.5 hrs
Neutrophil [6] = assay: Immunomodulatory activity in neutrophils (unknown origin) assessed as inhibition of LPS-induced CXCL1/KC level at 5 to 20 ug/ml by ELISA; type: functional, cell-based; details: dose 5-20 µg/ml
[7] = Toxicity in Kunming mouse assessed as effect on IL-6 levels at 10 mg/kg, ip measured after 5 hrs by ELISA; type: organism-based; details: in vivo
Mus musculus [8] = assay: Immunomodulatory activity in Kunming mouse infected with vancomycin-resistant Staphylococcus aureus assessed as increased in CXCL1/KC level in peritoneal lavage at 10 mg/kg, ip administered 24 hrs before infection by ELISA; type: functional, organism-based
Staphylococcus aureus [9] = assay: Antibacterial activity against vancomycin-resistant Staphylococcus aureus assessed as neutrophil-induced bacterial cell killing neutrophils pretreated with compound at 10 to 40 ug/ml; type: functional, organism-based; details: dose 10-40 µg/ml, time 15-60 min, TDE = time-dependent effect
[10] = Toxicity in Kunming mouse assessed as effect on IL-1beta levels at 10 mg/kg, ip measured after 5 hrs by ELISA; type: organism-based; details: in vivo
[11] = Induction of neutrophil extracellular trap formation in neutrophil (unknown origin) at 10 ug/ml measured after 3 hrs by fluorescence analysis; type: functional; details: dose 10 µg/ml
Mus musculus [12] = assay: Immunomodulatory activity in Kunming mouse infected with vancomycin-resistant Staphylococcus aureus assessed as decreased in TNF-alpha level in peritoneal lavage at 10 mg/kg, ip administered 4 hrs after infection by ELISA; type: functional, organism-based
Escherichia coli [13] = assay: Antimicrobial activity against Escherichia coli ATCC 25922 incubated for 16 to 18 hrs by fluorescence microplate reader analysis; type: functional; details: time 16-18 hrs
Mus musculus [14] = assay: Immunomodulatory activity in Kunming mouse infected with vancomycin-resistant Staphylococcus aureus assessed as effect number of inflammatory monocytes in peritoneal cavity at 10 mg/kg, ip measured upto 24 hrs by flow cytometry; type: functional, organism-based; details: time hrs <=24
Nakaseomyces glabratus = assay: Antimicrobial activity against Candida glabrata IS 09050201 incubated for 16 to 18 hrs by fluorescence microplate reader analysis; type: functional; details: time 16-18 hrs
Macrophage [15] = assay: Immunomodulatory activity in mouse peritoneal macrophage assessed as increase in MCP-1 level at 20 microg/ml measured after 24 hrs by ELISA; type: functional, tissue-based; details: dose 20.0 µg/ml
Neutrophil [16] = assay: Induction of ROS production in neutrophil (unknown origin) by fluorescence assay; type: functional, cell-based; details: dose 10-40 µg/ml
Macrophage [17] = assay: Immunomodulatory activity in mouse peritoneal macrophage assessed as inhibition of LPS-induced IL-1beta level measured after 6 hrs by qRT-PCR analysis; type: functional, tissue-based; details: dose 5-20 µg/ml
Klebsiella pneumoniae = assay: Antimicrobial activity against Klebsiella pneumoniae IS 1400 incubated for 16 to 18 hrs by fluorescence microplate reader analysis; type: functional; details: time 16-18 hrs
Staphylococcus aureus [18] = assay: Antibacterial activity against vancomycin-resistant Staphylococcus aureus assessed as bacterial growth inhibition in presence of 50 mmol NaCl; type: functional
Mus musculus [19] = assay: Immunomodulatory activity in Kunming mouse infected with vancomycin-resistant Staphylococcus aureus assessed as decreased in IL-6 level in peritoneal lavage at 10 mg/kg, ip administered 24 hrs before infection by ELISA; type: functional, organism-based
Staphylococcus aureus [20] = assay: In vivo antibacterial activity against vancomycin resistant Staphylococcus aureus infected in neutropenic kunming mouse model assessed as survival rate at 10 mg/kg, ip administered 24 hrs before infection; type: functional, organism-based
Escherichia coli [21] = assay: Antimicrobial activity against Escherichia coli IS 08040726 incubated for 16 to 18 hrs by fluorescence microplate reader analysis; type: functional; details: time 16-18 hrs
Enterococcus faecalis = assay: Antimicrobial activity against Enterococcus faecalis IS 981 incubated for 16 to 18 hrs by fluorescence microplate reader analysis; type: functional; details: time 16-18 hrs
Neutrophil [22] = assay: Immunomodulatory activity in neutrophils (unknown origin) assessed as inhibition of LPS-induced IL-6 level at 5 to 20 ug/ml by ELISA; type: functional, cell-based; details: dose 5-20 µg/ml
Macrophage [23] = assay: Immunomodulatory activity in mouse peritoneal macrophage assessed as inhibition of LPS-induced IL-1beta level measured after 24 hrs by ELISA; type: functional, tissue-based; details: dose 5-20 µg/ml
RAW264.7 = assay: Induction of ROS production in mouse RAW 264.7 cells by fluorescence assay; type: functional, cell-based; details: dose 10-40 µg/ml
Macrophage [24] = assay: Immunomodulatory activity in mouse peritoneal macrophage assessed as inhibition of LPS-induced MCP-1 level measured after 24 hrs by ELISA; type: functional, tissue-based; details: dose 5-20 µg/ml
Mus musculus [25] = assay: Immunomodulatory activity in Kunming mouse infected with vancomycin-resistant Staphylococcus aureus assessed as increased in MCP-1 level in peritoneal lavage at 10 mg/kg, ip administered 24 hrs before infection by ELISA; type: functional, organism-based
Staphylococcus aureus [26] = assay: Antimicrobial activity against vancomycin resistant Staphylococcus aureus IS 08032810, incubated for 16 to 18 hrs by fluorescence microplate reader analysis; type: functional; details: time 16-18 hrs
Mus musculus [27] = assay: Immunomodulatory activity in Kunming mouse infected with vancomycin-resistant Staphylococcus aureus assessed as effect number of neutrophil in peritoneal cavity at 10 mg/kg, ip measured upto 24 hrs by flow cytometry; type: functional, organism-based; details: time hrs <=24
Staphylococcus aureus [28] = assay: In vivo antibacterial activity against vancomycin resistant Staphylococcus aureus infected in kunming mouse assessed as reduction in bacterial load in peritoneum at 10 mg/kg, iv measured 18 hrs after infection; type: functional, organism-based
Macrophage [29] = assay: Immunomodulatory activity in mouse peritoneal macrophage assessed as inhibition of LPS-induced IL-6 level measured after 6 hrs by qRT-PCR analysis; type: functional, tissue-based; details: dose 5-20 µg/ml
Salmonella paratyphi = assay: Antimicrobial activity against Salmonella paratyphi IS 738 incubated for 16 to 18 hrs by fluorescence microplate reader analysis; type: functional, Salmonella enterica subsp. enterica serovar Paratyphi A; details: Salmonella enterica, time 16-18 hrs
Staphylococcus aureus [30] = assay: In vivo antibacterial activity against methicillin sensitive Staphylococcus aureus ATCC 25923 infected in kunming mouse assessed as increase in survival rate at 10 mg/kg, ip administered 4 hrs after infection and measured up to 7 days after infection relative to control; type: functional; details: time day <=7
Staphylococcus aureus [31] = assay: In vivo antibacterial activity against vancomycin resistant Staphylococcus aureus infected in kunming mouse assessed as reduction in bacterial load in peritoneum at 10 mg/kg, ip measured 18 hrs after infection; type: functional, organism-based
[32] = Toxicity in Kunming mouse assessed as effect on IL-10 levels at 10 mg/kg, ip measured after 5 hrs by ELISA; type: organism-based; details: in vivo
Klebsiella oxytoca = assay: Antimicrobial activity against Klebsiella oxytoca incubated for 16 to 18 hrs by fluorescence microplate reader analysis; type: functional; details: time 16-18 hrs
Macrophage [33] = assay: Immunomodulatory activity in mouse peritoneal macrophage assessed as inhibition of LPS-induced TNF-alpha level measured after 24 hrs by ELISA; type: functional, tissue-based; details: dose 5-20 µg/ml

CC[C@H](C)[C@H](NC(=O)[C@@H]1CCCN1C(=O)[C@@H](NC(=O)[C@@H](NC(=O)CNC(=O)CNC(=O)[C@@H](NC(=O)[C@H](Cc1ccccc1)NC(=O)[C@@H](NC(=O)[C@H](CCCCN)NC(=O)[C@@H](NC(=O)[C@H](CCCCN)NC(=O)[C@H](CCCCN)NC(=O)[C@H](Cc1ccccc1)NC(=O)[C@@H](NC(=O)[C@H](CCCCN)NC(=O)[C@H](CCCNC(=N)N)NC(=O)[C@H](Cc1ccccc1)NC(=O)CNC(=O)[C@H](CCCCN)NC(=O)[C@H](CCCCN)NC(=O)[C@@H](NC(=O)[C@H](CCCCN)NC(=O)[C@H](CCCNC(=N)N)NC(=O)[C@H](Cc1ccccc1)NC(=O)[C@H](Cc1ccccc1)NC(=O)[C@H](CCCCN)NC(=O)[C@H](CCCCN)NC(=O)[C@H](Cc1ccccc1)NC(=O)[C@H](CCCNC(=N)N)NC(=O)[C@@H](N)CCCCN)[C@@H](C)CC)[C@@H](C)CC)[C@@H](C)O)[C@@H](C)CC)[C@@H](C)CC)[C@@H](C)O)[C@@H](C)CC)C(=O)O (H-KRFKKFFRKIKKGFRKIFKKTKIFIGGTIPI-OH)
Activity (Staphylococcus aureus [1]): inactive | fold change (FC) [2]: 8 | Activity [3]: 41.16% | MIC (Staphylococcus aureus [4]): 1.17 µg/mL (≈ 0.308 µM) | inhibition (Macrophage [5]): 92% | inhibition (Neutrophil [6]): inactive | Activity [7]: Non-Toxic | Activity (Mus musculus [8]): Active | Activity (Staphylococcus aureus [9]): Tde | Activity [10]: Non-Toxic | Activity [11]: 15.65% | Activity (Mus musculus [12]): Active | MIC (Escherichia coli [13]): 1.17 µg/mL (≈ 0.308 µM) | Activity (Mus musculus [14]): inactive | MIC (Nakaseomyces glabratus): 1.17 µg/mL (≈ 0.308 µM) | inhibition (Macrophage [15]): Active | Activity (Neutrophil [16]): Dose-dependent effect | inhibition (Macrophage [17]): Dose-dependent effect | MIC (Klebsiella pneumoniae): 1.17 µg/mL (≈ 0.308 µM) | MIC (Staphylococcus aureus [18]): 4.69 µg/mL | Activity (Mus musculus [19]): Active | Activity (Staphylococcus aureus [20]): inactive | MIC (Escherichia coli [21]): 1.17 µg/mL (≈ 0.308 µM) | MIC (Enterococcus faecalis): 1.17 µg/mL (≈ 0.308 µM) | inhibition (Neutrophil [22]): Active | inhibition (Macrophage [23]): Dose-dependent effect | Activity (RAW264.7): Dose-dependent effect | inhibition (Macrophage [24]): Dose-dependent effect | Activity (Mus musculus [25]): Active | MIC (Staphylococcus aureus [26]): 1.17 µg/mL (≈ 0.308 µM) | Activity (Mus musculus [27]): inactive | Activity (Staphylococcus aureus [28]): Active | inhibition (Macrophage [29]): Dose-dependent effect | MIC (Salmonella paratyphi): 1.17 µg/mL (≈ 0.308 µM) | Activity (Staphylococcus aureus [30]): 83% | Activity (Staphylococcus aureus [31]): Active | Activity [32]: Non-Toxic | MIC (Klebsiella oxytoca): 1.17 µg/mL (≈ 0.308 µM) | inhibition (Macrophage [33]): Dose-dependent effect
